The source of these data is patent publication US20220233133A1, “HUMAN TACTILE PREPULSE […]” (President and Fellows of Harvard College, priority 2019, published 2022).

Assay [1] deals with Shank3 conditional mutant mice. The assay is described as follows: Tactile PPI performance in Shank3 conditional mutant mice. The following applies: 30 minutes following administration of 2 mg/kg, versus saline. Format: in vivo. As for the experimental part: (§1) Tactile PPI performance in Mecp2 or Shank3 conditional mutant mice, and their control littermates, 30 minutes following administration of either saline or 2 mg/kg compound 5.

The subject of assay [2] is Mecp2 conditional mutant mice. The experiment in a line: Tactile PPI performance in Mecp2 conditional mutant mice. The following applies: 30 minutes following administration of 2 mg/kg, versus saline. Format: in vivo. As for the experimental part: as §1
A further assay relates to ASD mouse models. To be noted: range of ASD mouse models (Orefice et al., 2019, Cell 178, 867-886); cited from earlier work.

Consider `NC1C=C(C(=O)O)CCC1` (stereo not drawn) [compound 5, 3-aminocyclohex-1-ene-1-carboxylic acid], for which the “hairy skin hypersensitivity (tactile PPI performance)” value in assay [1] and in assay [2] was “reduces hairy skin hypersensitivity” in each case.

For `Nc1[nH]c(=O)nc2nc[nH]c12` [isoguanine], the anxiety result with ASD mouse models was “useful to reduce”.
